In patent publication US10004777B2, “Bioactive compositions from Theacea plants and processes for their production and use” (ISP Investments Inc., priority 2004, dated 2018):

Test: Superoxide scavenging activity (xanthine oxidase / cytochrome c reduction)
Assay type: biochemical
From the text: Method 7: Method for Determination of Superoxide Scavenging Activity. The enzymatic system, which uses xanthine oxidase (a purified enzyme preparation produced by “Sigma”), was used to generate superoxide anions in high yield and in a controlled fashion. The conversion of xanthine to […] by this enzyme generates amounts of superoxide anions and reduction of ferricytochrome c to ferrocytochrome c was used as a sensitive measure of superoxide levels. The measurements of ferrocytochrome c level (550 nm), when tested bioactive compositions were added to the reaction system, allow for determination of their superoxide scavenging activity. The final concentrations per well were for cytochrome c 75 μM, xanthine 425 μm/L, and xanthine oxidase 10 mU/ml.

## O=C(/C=C/c1ccc(O)c(O)c1)O[C@H](Cc1ccc(O)c(O)c1)C(=O)O [rosmarinic acid]
  ICR50 of positive control: 26.5 µg/mL
